What was measured:
Assay in all cases: relative viability (nuclei count vs DMSO), 5 days (fraction); higher = more cells survive
[1] = compound: CCOC1=CC=CC=C1N=NC2=C(NN(C2=O)C3=NC(=CS3)C4=CC=CC=C4)C [BAM7] + CS(=O)(=O)CCNCc1ccc(-c2ccc3ncnc(Nc4ccc(OCc5cccc(F)c5)c(Cl)c4)c3c2)o1 [Lapatinib] (partner 2 µM)
Outline: (§1)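 Lung cancer cell lines, seeded in 1536-well plates, were treated the following day by pin tool with a single drug or with five library-drug doses (not always all listed) in √10 steps on top of a fixed anchor-drug dose. Cells were fixed and nuclei stained in one step after 5 days, and nuclei were counted. Relative viability is the nuclei count for treated wells divided by that for vehicle wells, reported as medians of duplicate plates.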

[2] = compound: CCOC1=CC=CC=C1N=NC2=C(NN(C2=O)C3=NC(=CS3)C4=CC=CC=C4)C [BAM7] + C[C@]1(O)C[C@@H](c2nc(-c3ccc4ccc(-c5ccccc5)nc4c3)c3c(N)nccn32)C1 [Linsitinib] (partner 1 µM)
Outline: as §1

[3] = compound: CCn1c(-c2nonc2N)nc2c(C#CC(C)(C)O)ncc(OC[C@H]3CCCNC3)c21 + CC(=O)Nc1cccc(-n2c(=O)n(C3CC3)c(=O)c3c(Nc4ccc(I)cc4F)n(C)c(=O)c(C)c32)c1 [Trametinib] (partner 0.02 µM)
Outline: as §1

[4] = compound: CCn1c(-c2nonc2N)nc2c(C#CC(C)(C)O)ncc(OC[C@H]3CCCNC3)c21 + O=C(CCCCCCC(=O)Nc1ccccc1)NO [Vorinostat] (partner 1 µM)
Outline: as §1

Question: How did the relative viability ([1]; first compound 0.5 µM) turn out when UMC-11 was run?
Answer: 1.02

Question: What about the relative viability ([1]; first compound 5 µM) of the same cell line?
Answer: 0.981

Question: And the relative viability ([1]; first compound 15.81 µM)?
Answer: 1.12

Question: And the relative viability ([1]; first compound 50 µM)?
Answer: 1.15

Question: What about the relative viability ([2]; first compound 0.5 µM) of the same cell line?
Answer: 1.12

Question: And the relative viability ([2]; first compound 5 µM)?
Answer: 1.05

Question: And the relative viability ([2]; first compound 15.81 µM)?
Answer: 1.07

Question: What about the relative viability ([2]; first compound 50 µM) of the same cell line?
Answer: 1.09

Question: And the relative viability ([3]; first compound 0.01 µM)?
Answer: 0.765

Question: What about the relative viability ([3]; first compound 0.03162 µM) of the same cell line?
Answer: 0.701

Question: What about the relative viability ([3]; first compound 0.1 µM) of the same cell line?
Answer: 0.754

Question: What about the relative viability ([3]; first compound 0.3162 µM) of the same cell line?
Answer: 0.754

Question: And the relative viability ([3]; first compound 1 µM)?
Answer: 0.618

Question: And the relative viability ([4]; first compound 0.01 µM)?
Answer: 0.423

Question: And the relative viability ([4]; first compound 0.03162 µM)?
Answer: 0.375

Question: What about the relative viability ([4]; first compound 0.1 µM) of the same cell line?
Answer: 0.357

Question: What about the relative viability ([4]; first compound 0.3162 µM) of the same cell line?
Answer: 0.316

Question: What about the relative viability ([4]; first compound 1 µM) of the same cell line?
Answer: 0.346

Reference: the supplement of paper PMC10307832
